Measurements reported in patent US20250195530A1, “POLQ INHIBITORS” (ASTRAZENECA AB, priority 2022, published 2025).
Read-outs that look alike come from different tables or passages of the source.

How the values were obtained:
[1] = tested on: DLD-1 BRCA2−/− cells; test: Homologous recombination synthetic lethal inhibition of proliferation, DLD-1 BRCA2-/- (Cell Titre Glo 3D); format: cell-based; conditions: Homo sapiens, read-out: POLQ PD Prolif Lumin (converted)
Method in brief: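 Luminescent Cell Titre Glo 3D readout, taken on day 12 for homologous-recombination-deficient DLD-1 BRCA2−/− and day 7 for the wild-type control, after compound refresh on day 6. Compounds spanned 10 μM to 0.51 nM in three-fold steps; IC50 defined as 50% reduction of average maximum signal.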

[2] = tested on: DLD-1 cells; test: Inhibition of proliferation, DLD-1 BRCA2 wt control (Cell Titre Glo 3D); format: cell-based; conditions: Homo sapiens, read-out: POLQ PD Prolif Lumin (converted)
Text: This assay identifies anti-proliferative effects of POLQ compounds in the homologous recombination deficient colorectal cell line DLD-1 BRCA2−/− over 8-9 population doublings (7 days for DLD-1 and 12 days for DLD-1 BRCA2−/−). DLD1 BRCA2 wt are used as a control to detect cell toxic effects not specific to homologous recombination deficiency.
DLD-1 BRCA2−/− and DLD-1 cells were kept in continuous culture in Assay Medium (RPMI 1640 phenol red free (Sigma R7509) containing 1% GlutaMAX (Gibco 35050) and 10% Foetal Bovine Serum (Gibco 10270-106)). On the day of the assay cells in culture of ˜80-90% confluent were used. Cell monolayers were washed with 10 mL PBS, then removed and added 2 mL TrypLE Express (Gibco 12604). The cells with TrypLE Express were incubated for 5 minutes in cell culture incubator and then the detached cells resuspend in 15 mL Assay Medium. Cells were counted using a ViCell and the cell images were monitored for clumps of cells, ideally they should be single or <3 cell clusters. The cells were diluted to 3,000 cells/mL of DLD-1 BRCA2−/− and 1,500 cells/mL of DLD-1 in Assay Medium and 100 μL added per well of transparent bottomed, black, tissue culture-treated 96-well plates (CoStar, No. 3904) Assay Ready Plates. The Assay Ready Plates contain a 10 point 10 μM to 0.51 nM dose range with three-fold dilutions in DMSO with a final volume of 100 nL. The plates were incubated at 37° C. with 5% C02 for 6 days. On day 6, 100 μL/well of Assay Medium was added to duplicate Assay Ready Plates. 90 μL of culture medium was removed from the cell plates and replenished with the Assay Media and compounds from the duplicate Assay Ready Plates using the Bravo. The plates were further incubated at 37° C. with 5% CO2. On day 7 the plates containing DLD-1 and Cell Titre Glo 3D (Promega G9683) were equilibrated to room temperature, then 60 μL of Cell Titre Glo 3D was added per well and incubated on a shaking platform for 30 min. Plates were read on the Envision measuring luminescence for 1 second per well. On day 12 the plates containing DLD-1 BRCA2−/− cells and Cell Titre Glo 3D (Promega G9683) were equilibrated to room temperature, then 60 μL Cell Titre Glo 3D added per well and incubated on a shaking platform for 30 min. Plates were read on the Envision measuring luminescence for 1 second per well. The data was exported into a suitable software package (such as Genedata) to perform curve fitting analysis. Inhibition of cell proliferation was expressed as an IC5o value and was determined by calculation of the concentration of compound that was required to give a 50% reduction of the average maximum Total Intensity signal.

[3] = DLD-1, DLD-1 BRCA2-/- proliferation, column head only partly shown
[4] = DLD-1, DLD-1 BRCA2 wt control proliferation, column head only partly shown
[5] = DLD-1, proliferation, luminescence, taken as DLD-1 BRCA2-/-
[6] = DLD-1, proliferation, luminescence, second Prolif column (c6), taken as DLD-1 BRCA2 wt control
[7] = DLD-1, first proliferation column (c5), DLD-1 BRCA2-/-
[8] = DLD-1, second proliferation column (c6), DLD-1 BRCA2 wt control

`CC(CCOc1ccc(-c2nc3c(OC4(C)CC4)ncnc3n2Cc2cc(F)cc(F)c2)c(Cl)c1)C(=O)O` (racemic) [Example T260, 4-(3-chloro-4-(9-(3,5-difluorobenzyl)-6-(1-methylcyclopropoxy)-9H-purin-8-yl)phenoxy)-2-methylbutanoic acid] was tested, and the IC50 [1, 3] was 251 nM and the IC50 [2, 4] was > 10000 nM.

For `CC(CCOc1ccc(-c2nc3c(OC4(C)CC4)ncnc3n2Cc2cc(Cl)ccc2F)c(Cl)c1)C(=O)O` (racemic) [Example T268, 4-(3-chloro-4-(9-(5-chloro-2-fluorobenzyl)-6-(1-methylcyclopropoxy)-9H-purin-8-yl)phenoxy)-2-methylbutanoic acid], the IC50 [1, 3] was 63.1 nM and the IC50 [2, 4] was > 10000 nM.

`CC(CCOc1ccc(-c2nc3c(OC(C)(C)C(F)(F)F)ncnc3n2Cc2cccc(Cl)c2)c(Cl)c1)C(=O)O` (racemic) [Example T274, 4-(3-chloro-4-(9-(3-chlorobenzyl)-6-((1,1,1-trifluoro-2-methylpropan-2-yl)oxy)-9H-purin-8-yl)phenoxy)-2-methylbutanoic acid] was tested, and the IC50 [1, 3] was 316 nM and the IC50 [2, 4] was > 10000 nM.

With `CC(CCOc1ccc(-c2nc3c(OC4(C)CC4)ncnc3n2Cc2cc(Cl)cc(Cl)c2)c(Cl)c1)C(=O)O` (racemic) [Example T275, 4-(3-chloro-4-(9-(3,5-dichlorobenzyl)-6-(1-methylcyclopropoxy)-9H-purin-8-yl)phenoxy)-2-methylbutanoic acid] the IC50 [1, 3] was 126 nM and the IC50 [2, 4] was > 10000 nM.

For `CC(CCOc1ccc(-c2nc3c(OC4(C)CC4)ncnc3n2Cc2cc(Cl)ccc2Cl)c(Cl)c1)C(=O)O` (racemic) [Example T276, 4-(3-chloro-4-(9-(2,5-dichlorobenzyl)-6-(1-methylcyclopropoxy)-9H-purin-8-yl)phenoxy)-2-methylbutanoic acid], the IC50 [1, 3] was 63.1 nM and the IC50 [2, 4] was > 10000 nM.

With `CC(CCOc1ccc(-c2nc3c(OC4(C)CC4)ncnc3n2Cc2c(Cl)cccc2Cl)c(Cl)c1)C(=O)O` (racemic) [Example T277, 4-(3-chloro-4-(9-(2,6-dichlorobenzyl)-6-(1-methylcyclopropoxy)-9H-purin-8-yl)phenoxy)-2-methylbutanoic acid] the IC50 [1, 3] was 2000 nM and the IC50 [2, 4] was > 10000 nM.

With `CC(CCOc1ccc(-c2nc3c(OC4(C)CC4)ncnc3n2Cc2ccccc2Br)c(Cl)c1)C(=O)O` (racemic) [Example T278, 4-(4-(9-(2-bromobenzyl)-6-(1-methylcyclopropoxy)-9H-purin-8-yl)-3-chlorophenoxy)-2-methylbutanoic acid] the IC50 [1, 3] was 316 nM and the IC50 [2, 4] was > 10000 nM.

For `CC(CCOc1ccc(-c2nc3c(OC4(C)CC4)ncnc3n2Cc2cccc(Br)c2)c(Cl)c1)C(=O)O` (racemic) [Example T279, 4-(4-(9-(3-bromobenzyl)-6-(1-methylcyclopropoxy)-9H-purin-8-yl)-3-chlorophenoxy)-2-methylbutanoic acid], the IC50 [1, 3] was 200 nM and the IC50 [2, 4] was > 10000 nM.

For `CC(CCOc1ccc(-c2nc3c(OC4(C)CC4)ncnc3n2Cc2cccc(I)c2)c(Cl)c1)C(=O)O` (racemic) [Example T285, 4-(3-chloro-4-(9-(3-iodobenzyl)-6-(1-methylcyclopropoxy)-9H-purin-8-yl)phenoxy)-2-methylbutanoic acid], the IC50 [1, 3] was 251 nM and the IC50 [2, 4] was > 10000 nM.

In the case of `CC(CCOc1cccc(-c2nc3c(OC4(C)CC4)ncnc3n2Cc2cccc(Cl)c2)c1Cl)C(=O)O` (racemic) [Example T293, 4-(2-chloro-3-(9-(3-chlorobenzyl)-6-(1-methylcyclopropoxy)-9H-purin-8-yl)phenoxy)-2-methylbutanoic acid], the IC50 [1, 3] is reported as 31.6 nM and the IC50 [2, 4] is reported as > 3160 nM.

For `CC(OCCOc1ccc(-c2nc3c(OC4(C)CC4)ncnc3n2Cc2cccc(Cl)c2)c(Cl)c1)C(=O)O` (racemic) [Example T305, rac-(R)-2-(2-(3-chloro-4-(9-(3-chlorobenzyl)-6-(1-methylcyclopropoxy)-9H-purin-8-yl)phenoxy)ethoxy)propanoic acid], the IC50 ([1]; DLD-1, first proliferation column (c5), taken as DLD-1 BRCA2-/-) was 794 nM and the IC50 ([2]; DLD-1, second proliferation column (c6), taken as DLD-1 BRCA2 wt) was > 10000 nM.

With `CC(CCOc1ccc(-c2nc3c(OC4(C)CC4)ncnc3n2Cc2cc(C(F)(F)F)ccc2F)c(Cl)c1)C(=O)O` (racemic) [Example T395, 4-(3-chloro-4-(9-(2-fluoro-5-(trifluoromethyl)benzyl)-6-(1-methylcyclopropoxy)-9H-purin-8-yl)phenoxy)-2-methylbutanoic acid] the IC50 [1, 5] was 100 nM and the IC50 [2, 6] was > 10000 nM.

In the case of `CC(CCOc1ccc(-c2nc3c(OC4(C)CC4)ncnc3n2Cc2cccc(C#N)c2)c(Cl)c1)C(=O)O` (racemic) [Example T399, 4-(3-chloro-4-(9-(3-cyanobenzyl)-6-(1-methylcyclopropoxy)-9H-purin-8-yl)phenoxy)-2-methylbutanoic acid], the IC50 [1, 5] is reported as 316 nM and the IC50 [2, 6] is reported as > 10000 nM.

For `CC(CCOc1ccc(-c2nc3c(OC4(C)CC4)ncnc3n2Cc2ccccc2C#N)c(Cl)c1)C(=O)O` (racemic) [Example T400, 4-(3-chloro-4-(9-(2-cyanobenzyl)-6-(1-methylcyclopropoxy)-9H-purin-8-yl)phenoxy)-2-methylbutanoic acid], the IC50 [1, 5] was 251 nM and the IC50 [2, 6] was > 10000 nM.

`Cc1ccc(F)c(Cn2c(-c3ccc(OCCC(C)C(=O)O)cc3Cl)nc3c(OC4(C)CC4)ncnc32)c1` (racemic) [Example T417, 4-(3-chloro-4-(9-(2-fluoro-5-methylbenzyl)-6-(1-methylcyclopropoxy)-9H-purin-8-yl)phenoxy)-2-methylbutanoic acid] was tested, and the IC50 [1, 5] was 50.1 nM and the IC50 [2, 6] was > 10000 nM.

`CC(CCOc1ccc(-c2nc3c(OC4(C)CC4)ncnc3n2Cc2cc(C(F)(F)F)cc(C(F)(F)F)c2)c(Cl)c1)C(=O)O` (racemic) [Example T533, 4-(4-(9-(3,5-bis(trifluoromethyl)benzyl)-6-(1-methylcyclopropoxy)-9H-purin-8-yl)-3-chlorophenoxy)-2-methylbutanoic acid] was tested, and the IC50 [1, 7] was 398 nM and the IC50 [2, 8] was > 3160 nM.

For `CC(CCOc1ccc(-c2nc3c(OC4(C)CC4)ncnc3n2Cc2cccc(C(C)(F)F)c2)c(Cl)c1)C(=O)O` (racemic) [Example T544, 4-(3-chloro-4-(9-(3-(1,1-difluoroethyl)benzyl)-6-(1-methylcyclopropoxy)-9H-purin-8-yl)phenoxy)-2-methylbutanoic acid], the IC50 [1, 7] was 501 nM and the IC50 [2, 8] was > 10000 nM.

In the case of `CC(C)C(CCOc1ccc(-c2nc3c(OC4(C)CC4)ncnc3n2Cc2cccc(Cl)c2)c(Cl)c1)C(=O)O` (racemic) [Example T566, 4-(3-chloro-4-(9-(3-chlorobenzyl)-6-(1-methylcyclopropoxy)-9H-purin-8-yl)phenoxy)-2-isopropylbutanoic acid], the IC50 [1, 7] is reported as 158 nM and the IC50 [2, 8] is reported as > 10000 nM.

With `Cc1cccc(C)c1Cn1c(-c2ccc(OCCC(C)C(=O)O)cc2Cl)nc2c(OC3(C)CC3)ncnc21` (racemic) [Example T571, 4-(3-chloro-4-(9-(2,6-dimethylbenzyl)-6-(1-methylcyclopropoxy)-9H-purin-8-yl)phenoxy)-2-methylbutanoic acid] the IC50 [1, 7] was 1260 nM and the IC50 [2, 8] was > 10000 nM.

For `CC(CCOc1ccc(-c2nc3c(OC4(C)CC4)ncnc3n2Cc2ccccc2C2CC2)c(Cl)c1)C(=O)O` (racemic) [Example T598, 4-(3-chloro-4-(9-(2-cyclopropylbenzyl)-6-(1-methylcyclopropoxy)-9H-purin-8-yl)phenoxy)-2-methylbutanoic acid], the IC50 ([1]; DLD-1, first proliferation column, DLD-1 BRCA2-/-) was 631 nM and the IC50 ([2]; DLD-1, second proliferation column, DLD-1 BRCA2 wt control) was > 10000 nM.
